Reference: US20110190249A1, “THERAPEUTIC METHODS AND USES OF SAPOGENINS AND THEIR DERIVATIVES” (PHYTOPHARM PLC, priority 2002, published 2011)
Marks after values point to notes of the source that are not given here.

Legend:
[1] = test system: rat primary cortical neurones; assay: Reversal of glutamate-induced neurodegeneration (LDH), treatment after glutamate exposure; assay type: cell-based; conditions: LDH after 24 h, control = 100
Procedure: (§1) Neuronal cell survival was evaluated by measuring lactate dehydrogenase (LDH) activity released in the media 24 h after test compound treatment or glutamate+test compound exposure, using the CytoTox 96 non-radioactive kit and quantitated by measuring wavelength absorbance at 450 nm.
As above mentioned, exposure of rat primary cortical cultures to glutamate (100 μM; 10 min) caused an increase in lactate dehydrogenase (LDH) activity measured after 24 h, indicating a significant neurodegeneration.

[2] = test system: rat primary spinal motor neurones; assay: Glutamate-induced neurodegeneration in spinal motor neurones (LDH); assay type: cell-based; conditions: control 100 ± 1
Procedure: The objective of this study was to examine the effects of sarsasapogenin and smilagenin on the survival of rat primary spinal motor neurones exposed to glutamate, which is known to induce neurodegeneration in this model of motor neurodegeneration.
Rat motor neurones were prepared according to the method described by (Martinou et al, Neuron, 8, 737-744, 1992). On day 10, medium was removed and the cultures were exposed to glutamate (4 microM) for 10 min at 37° C. in defined medium. After the glutamate exposure, cultures were washed with Dulbecco modified Eagle medium at 37° C. then placed in fresh culture medium containing test compounds. After 48 h, the extent of spinal motor neurone degeneration was determined by measuring the amount of lactate dehydrogenase (LDH) released into the culture medium as above.

[3] = test system: rat primary cortical neurones; assay: Neurite outgrowth in rat primary cortical neurones; assay type: cell-based; conditions: for Number of neurones displaying neurites, Mean ± s.e.m (%): control 47 ± 2; for Neurite length measured using optical micrometry, Mean ± s.e.m (%): control 100 ± 4
From the text: Neurodegenerative disorders are characterised by a progressive loss of neurones and degradation of neuronal processes (neurites). Agents that induce neurite outgrowth may promote the formation of new connections between neurones and ameliorate the symptoms of neurodegenerative conditions (Katzman et al, Faseb J., 5, 278-286, 1991).

[4] = test system: rat mesencephalic dopaminergic neurones; assay: Treatment of dopaminergic neurones after MPP+ exposure (survival, neurites); assay type: cell-based; conditions: treatment 0.03 nM; MPP+ 2 μM; MPP+ alone 76 ± 4
From the text: Smilagenin and sarsasapogenin also reverse the neurodegeneration caused by exposure to the neurotoxin 1-methyl-4-phenylpyridinium (MPP^+) in rat mesencephalic dopaminergic neurones; a model of Parkinson's disease in vitro.
Glial cell line-derived neurotrophic factor (GDNF) and brain-derived neurotrophic factor (BDNF), molecules that are involved in neuronal growth, and 17β-oestradiol were used as positive controls. Treatment with smilagenin and sarsasapogenin produced a significant increase in the neuronal survival compared to neurones exposed to MPP^+ alone (Table 8).
Exposure to MPP^+ caused not only a significant decrease in dopaminergic number but also in the percentage of neurites.

[5] = test system: Sprague Dawley rats injected with amyloid β1-40 and ibotenic acid; assay: Step-through test in amyloid β + ibotenic acid rat model; assay type: in vivo; conditions: 18 mg/kg/day gastric tube, two months; errors in 5 min; model 4.00 ± 2.40, control 0.60 ± 0.70
Procedure: (§2) An in vivo model of Alzheimer's disease was used to model neurodegeneration. In this model the neurotoxic agents (amyloid β and ibotenic acid) are injected into the brain of the rat. This leads to neuronal loss, receptor loss and cognitive impairment. […] In addition the co-injection of amyloid β with a small amount of ibotenic acid into the rat hippocampus synergistically produces neuronal loss with infiltration of glial cells not only adjacent but also far from the injected site (Morimoto et al., 1998: Neuroscience, 84, 479-487).
(§3) Our studies used the method of Morimoto (Morimoto et al., 1998: Neuroscience, 84, 479-487) with some modifications (unilateral instead of bilateral injection). Three months old, Sprague Dawley rats, were randomly divided into different groups. Injection of amyloid β1-40 and ibotenic acid (both from Sigma) was accomplished by means of a stereotaxic instrument (Stoelting Co.) and the coordinates were AP=−0.5 mm […], L=−2.8 mm […], H=−7.0 mm (ventral to dura). The dose for each rat was amyloid β1-40 (4 μg) and ibotenic acid (1 μg) in 1 μl of saline. The injection was completed in 20 min, and the needle was withdrawn 10 min later. Then the skin was sutured.
(§4) The 8 groups were: • Operated control injected with normal saline (control) • Model (control injected with amyloid β+ibotenic acid) • Model+Episarsasapogenin cathylate (18 mg/kg/day)* • Model+Sarsasapogenin cathylate (18 mg/kg/day)* • Model+Episarsasapogenin ethylsuccinate (18 mg/kg/day) (comparison) • Model+Episarsasapogenin (18 mg/kg/day)* • Model+Epismilagenin (18 mg/kg/day)* • Model+Diosgenin (i.e. negative control, 18 mg/kg/day)
(§5) Episarsasapogenin cathylate, sarsasapogenin cathylate, episarsasapogenin ethylsuccinate (comparison compound), episarsasapogenin, epismilagenin and diosgenin (all at a dosage of 18 mg/kg/day) were administered to animals as stable suspensions in CMC—Na (0.5%) once daily through a gastric tube. The control and the model group were given the same volume of CMC—Na (0.5%) once daily. The drugs and vehicles were given for a period of two months, starting 20 days before operation.
Step-Through Test: learning and memory. The effect of test compounds on learning and memory was assessed using the step-through test. A 60×15×15 cm box, divided into 2 equally sized rooms, one dark room with copper rod base, which was electrically charged (40 V ac) when in use, while the other was a light room but not electrically charged. Between the two rooms there is an opening (hole) for the rat to go through. The experiment is carried out for each rat on two consecutive days. The first day is for training; when the rat is adapted in the box for the first 3 min, then put in the light room, with its back toward the hole, and the copper rods of the dark room are charged for 5 min. The second day is for testing, when the number of crosses in 5 min are recorded. Improvements in memory are signalled by a reduction in the number of crosses.

[6] = test system: muscarinic acetylcholine receptor; assay: Brain M receptor density (3H-QNB) in amyloid β + ibotenic acid rat model; assay type: in vivo; conditions: 18 mg/kg/day gastric tube, two months; model 713 ± 48, control 859 ± 101
Procedure: as §2, §3, §4, §5
Muscarinic acetylcholine receptor density was assessed. The brain samples were homogenised, centrifuged, and the pellet of centrifugation at 27000×g was re-homogenised and used for measurement. The concentration of ^3H-QNB was chosen at the saturation range. After incubation and separation, the bound portion was measured by liquid scintillation counter.

[7] = test system: rat primary cortical neurones; assay: Prevention of glutamate-induced neurodegeneration (LDH release), pre-treatment; assay type: cell-based; conditions: 30 nM, given 24 h before glutamate; LDH 24 h after glutamate; control = 100
Procedure: The objective of this study was to examine the effects of sarsasapogenin, episarsasapogenin cathylate, episarsasapogenin, epismilagenin and smilagenin on the survival of rat primary cortical neurones exposed to glutamate, which is known to induce neuro degeneration.
Rat cortical neurones were cultured for 10 days; at day 10 the medium was changed to a serum-free defined medium. On day 12, 24 hours before glutamate exposure, cultures were washed and medium was replaced with fresh medium containing positive control (β-oestradiol), test compounds (sarsasapogenin, episarsasapogenin cathylate, episarsasapogenin, epismilagenin and smilagenin) or vehicle control (DMSO, 0.25%) or diosgenin as negative control.
On day 13, cultures were exposed to glutamate. After the incubation period, the cultures were washed with and placed in fresh medium, supplemented with relevant compounds or vehicle to evaluate their protective effects, 24 h after glutamate exposure.
as §1

[8] = 3 nM after glutamate 100 μM 10 min
[9] = 30 nM after glutamate 100 μM 10 min

Molecule: CC(C)CCC1OC2C[C@H]3[C@@H]4CC[C@@H]5C[C@@H](O)CC[C@]5(C)[C@H]4CC[C@]3(C)[C@H]2[C@@H]1C (stereo partly drawn) [16,22-epoxycoprostan-3β-ol]
- Cortical neurones previously exposed to glutamate, Mean ± s.e.m (%) [1, 8]: 114 ± 7%
- Cortical neurones previously exposed to glutamate, Mean ± s.e.m (%) [1, 9]: 134 ± 5%

Molecule: C[C@]12CC[C@@H]3c4ccc(O)cc4CC[C@H]3[C@@H]1CC[C@@H]2O [17β-oestradiol, reference compound]
- Cortical neurones previously exposed to glutamate, Mean ± s.e.m (%) [1, 8]: 69 ± 2%
- Cortical neurones previously exposed to glutamate, Mean ± s.e.m (%) [1, 9]: 75 ± 5%
- Glutamate-induced neurodegeneration in spinal motor neurones, Mean ± s.e.m (%) ([2]; 300 nM for 48 h after glutamate 4 microM 10 min): 116 + 6%
- Number of neurones displaying neurites, Mean ± s.e.m (%) ([3]; 0.3 pM): 48 ± 2%
- Neurite length measured using optical micrometry, Mean ± s.e.m (%) ([3]; 0.3 pM): 154 ± 5%
- Number of neurones displaying neurites, Mean ± s.e.m (%) ([3]; 3 pM): 60 ± 2%
- Neurite length measured using optical micrometry, Mean ± s.e.m (%) ([3]; 3 pM): 163 ± 4%
- Number of neurones displaying neurites, Mean ± s.e.m (%) ([3]; 30 pM): 59 ± 2%
- Dopaminergic neurones after MPP+ exposure (survival), Mean ± s.e.m (%) [4]: 106 + 5%

Molecule: CC(C)CCC[C@@H](C)[C@H]1CC[C@H]2[C@@H]3CC[C@@H]4C[C@@H](O)CC[C@]4(C)[C@H]3CC[C@]12C [Coprosterol, coprosterol]
- Cortical neurones previously exposed to glutamate, Mean ± s.e.m (%) [1, 8]: 126 ± 5%
- Cortical neurones previously exposed to glutamate, Mean ± s.e.m (%) [1, 9]: 116 ± 4%

Molecule: CCOC(=O)CCC(=O)OC1CCC2(C)C(CCC3C2CCC2(C)C3CC3OC4(CCC(C)CO4)C(C)C32)C1 (centres unmarked) [Episarsasapogenin ethylsuccinate, episarsasapogenin ethylsuccinate, reference compound]
- Learning and memory Step through test Error No [5]: 3.73 ± 1.35
- M receptor density [6]: 774 ± 79 fmol/mg/protein

Molecule: CC1CCC2(OC1)OC1CC3C4CCC5CC(OC(=O)CN)CCC5(C)C4CCC3(C)C1C2C.Cl (centres unmarked) [Smilagenin glycinate hydrochloride, smilagenin glycinate hydrochloride]
- Cortical neurones previously exposed to glutamate, Mean ± s.e.m (%) [1, 8]: 117 ± 4%
- Cortical neurones previously exposed to glutamate, Mean ± s.e.m (%) [1, 9]: 141 ± 6%

Molecule: C[C@@H]1CC[C@@]2(OC1)O[C@H]1C[C@H]3[C@@H]4CC[C@@H]5CC(=O)CC[C@]5(C)[C@H]4CC[C@]3(C)[C@H]1[C@@H]2C [Smilagenone, smilagenone]
- Cortical neurones previously exposed to glutamate, Mean ± s.e.m (%) [1, 8]: 119 ± 7%
- Cortical neurones previously exposed to glutamate, Mean ± s.e.m (%) [1, 9]: 119 ± 4%

Molecule: C[C@@H]1CC[C@@]2(OC1)O[C@H]1C[C@H]3[C@@H]4CC=C5C[C@@H](O)CC[C@]5(C)[C@H]4CC[C@]3(C)[C@H]1[C@@H]2C [diosgenin, reference compound]
- Prevention of glutamate-induced neurodegeneration, Mean ± s.e.m (%) [7]: 72 ± 4%
- Cortical neurones previously exposed to glutamate, Mean ± s.e.m (%) [1, 9]: 49 ± 6%
- Learning and memory Step through test Error No [5]: 3.75 ± 1.49
- M receptor density [6]: 770 ± 68 fmol/mg/protein

Molecule: C[C@H]1CC[C@@]2(OC1)O[C@H]1C[C@H]3[C@@H]4CC[C@@H]5C[C@H](O)CC[C@]5(C)[C@H]4CC[C@]3(C)[C@H]1[C@@H]2C [episarsasapogenin]
- Prevention of glutamate-induced neurodegeneration, Mean ± s.e.m (%) [7]: 88 ± 3%
- Learning and memory Step through test Error No [5]: 1.50 ± 1.18*
- M receptor density [6]: 869 ± 104* fmol/mg/protein

Molecule: C[C@@H]1CC[C@@]2(OC1)O[C@H]1C[C@H]3[C@@H]4CC[C@@H]5C[C@H](O)CC[C@]5(C)[C@H]4CC[C@]3(C)[C@H]1[C@@H]2C [epismilagenin]
- Prevention of glutamate-induced neurodegeneration, Mean ± s.e.m (%) [7]: 79 ± 2%
- Learning and memory Step through test Error No [5]: 1.73 ± 0.91*
- M receptor density [6]: 877 ± 90* fmol/mg/protein

Molecule: CCOC(=O)OC1CCC2(C)C(CCC3C2CCC2(C)C3CC3OC4(CCC(C)CO4)C(C)C32)C1 (centres unmarked) [sarsasapogenin cathylate]
- Learning and memory Step through test Error No [5]: 1.36 ± 1.03*
- M receptor density [6]: 916 ± 158* fmol/mg/protein

B1: BDNF: brain-derived neurotrophic factor, positive control (protein, UniProt P23560 19-247, looked up)
Neurotrophic factor BDNF …: APMKEANIRGQGGLAYPGVRTHGTLESVNGPKAGSRGLTSLADTFEHVIEELLDEDQKVRPNEENNKDADLYTSRVMLSSQVPLEPPLLFLLEEYKNYLDAANMSMRVRRHSDPARRGELSVCDSISEWVTAADKKTAVDMSGGTVTVLEKVPVSKGQLKQYFYETKCNPMGYTKEGCRGIDKRHWNSQCRTTQSYVRALTMDSKKRIGWRFIRIDTSCVCTLTIKRGR
- Glutamate-induced neurodegeneration in spinal motor neurones, Mean ± s.e.m (%) ([2]; 3 nM for 48 h after glutamate 4 microM 10 min): 148 ± 8%
